Laboratory results as given in patent publication US12673947B2 (Cytosinlab Therapeutics Co., Ltd., priority 2020, dated 2026).
pIC50: −log10 of the molar value.

Legend:
[1] = target: T1, FLT3 (Homo sapiens, UniProt P36888); assay: FLT3 kinase in vitro inhibitory activity experiment (Caliper mobility shift, conversion rate); format: biochemical; details: IC50 class, read-out: Enzyme activity FLT3
T1 construct: purchased Carna 08-145
T1 sequence (P36888 27-993): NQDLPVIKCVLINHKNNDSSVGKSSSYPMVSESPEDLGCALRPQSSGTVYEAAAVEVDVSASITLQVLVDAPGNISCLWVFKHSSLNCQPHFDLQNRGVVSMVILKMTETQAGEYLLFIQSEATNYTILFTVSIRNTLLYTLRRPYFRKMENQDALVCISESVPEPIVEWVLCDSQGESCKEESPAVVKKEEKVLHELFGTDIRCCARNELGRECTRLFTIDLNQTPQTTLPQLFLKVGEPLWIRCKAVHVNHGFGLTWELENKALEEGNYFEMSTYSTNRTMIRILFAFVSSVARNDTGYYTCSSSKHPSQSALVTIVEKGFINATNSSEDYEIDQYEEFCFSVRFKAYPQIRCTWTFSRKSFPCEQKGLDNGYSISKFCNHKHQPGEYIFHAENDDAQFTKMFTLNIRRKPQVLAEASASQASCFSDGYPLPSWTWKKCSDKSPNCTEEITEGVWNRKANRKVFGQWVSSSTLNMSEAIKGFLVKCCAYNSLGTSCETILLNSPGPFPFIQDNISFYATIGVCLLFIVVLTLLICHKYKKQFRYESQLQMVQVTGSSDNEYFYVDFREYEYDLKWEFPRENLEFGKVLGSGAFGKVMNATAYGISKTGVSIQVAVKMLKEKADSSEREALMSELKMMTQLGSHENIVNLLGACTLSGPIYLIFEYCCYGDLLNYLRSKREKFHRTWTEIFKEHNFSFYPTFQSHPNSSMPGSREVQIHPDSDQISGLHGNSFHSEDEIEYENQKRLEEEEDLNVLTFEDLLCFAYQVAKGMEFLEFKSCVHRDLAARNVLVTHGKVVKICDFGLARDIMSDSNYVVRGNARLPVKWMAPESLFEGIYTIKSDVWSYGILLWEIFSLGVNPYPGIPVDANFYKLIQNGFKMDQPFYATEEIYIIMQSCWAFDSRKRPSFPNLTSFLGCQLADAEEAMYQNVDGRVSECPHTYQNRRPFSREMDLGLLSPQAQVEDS
Description: Biological Test Example 1: FLT3 Kinase In Vitro Inhibitory Activity Experiment
Centrifuge (manufacturer: Eppendorf, model: 5430), microplate reader (manufacturer: Perkin Elmer, model: Caliper EZ Reader II), Echo 550 (manufacturer: Labcyte, model: Echo 550)
1. Kinase Reaction Process
• (1) 1×Kinase buffer was prepared. • (2) Preparation of the serial compound dilutions: the initial stock (the concentration of the tested compound was 1 μM) was diluted by 3-fold into 10 concentrations, and was single-well detected. The compounds were series diluted to solutions of 10 different concentration (100-folds final concentration) in 384-well plates. 250 nl of solution was transferred to each well of 384-well plate by Echo550. 100% DMSO (250 nl) was added to negative control wells and positive control wells respectively. • (3) Kinase solution (2.5 times final concentration) was prepared with 1×Kinase buffer. • (4) 10 μL of kinase solution (2.5 times final concentration) was added to compound wells and positive control wells respectively: 1×Kinase buffer (10 μL) was added to the negative control wells. • (5) The solution was centrifuged at 1000 rpm for 30 seconds, shaked and mixed, and incubated at room temperature for 10 minutes. • (6) The mixed solution of ATP and Kinase substrate 2 (25/15 times final concentration) was prepared with 1×Kinase buffer. • (7) 15 μL of mixed solution ATP and Kinase substrate 2 (25/15 times final concentration) was added to initiated the reaction. • (8) 384 well plate was centrifuged at 1000 rpm for 30 seconds, shaked and mixed, then incubated at room temperature for 30 minutes. • (9) Stop solution (30 μL) was added to stop kinase reaction, and the solution was centrifuged at 1000 rpm for 30 seconds, shaked and mixed. • (10) The conversion rate was read with Caliper EZ Reader II. 2. Data Analysis Formula for Calculation
Wherein: Conversion %_sample is the reading of the sample conversion; Conversion %_min: negative control well.

[2] = tested on: MV4;11 cells; assay: MV4;11 in vitro inhibition of proliferation assay (CellTiter-Glo, 72 hours); format: cell-based; details: Homo sapiens, MV4-11, 72 h, IC50 class, read-out: Inhibitory activity of cell proliferation MV4;11
Excerpt: Biological Test Example 2: MV4;11 In Vitro Inhibition of Proliferation Assay
The MV4;11 cell lines were purchased from the cell bank of the Chinese Academy of Sciences, IMDM medium (Gibco, catalog number 12440), fetal bovine serum (Gibco, catalog number 10099141C), penicillin-streptomycin antibiotics (Gibco, catalog number 15140122), DMSO (Sigma, catalog number D2650), Celltiter-Glo kit (CTG) (Promega, catalog number G7573), 384-well clear flat-bottom black cell culture plate (Corning, catalog number 3764), D300e digital dispenser (Tecan, catalog number D300e), SpectraMax i3x microplate reader (MOLECULAR DEVICES, catalog number i3x)
MV4;11 cell was cultivated in IMDM, 10% fetal bovine serum, 1% penicillin-streptomycin antibiotics, and cell density was kept less than 1.0*10E6 cells per ml to ensure that it was always in logarithmic growth phase. Cell viability was greater than 95%.
The compounds to be tested was diluted by 3 times from 10 uM with DMSO to 9 concentrations. 60 nl diluted compound was added to the cell culture plate and three duplicates were set up.
The prepared MV4;11 cell suspension was added to the 384-well plate, and 20 microliters of cell suspension was added per well, i.e., each well contained 2000 MV4;11 cells, of which the final concentration of DMSO was 0.3%. The cell culture plate was placed in 37° C. and incubated in a 5% carbon dioxide incubator for 72 hours.
20 μL of Promega CellTiter-Glo reagent was added to per well, and the plate was incubated at room temperature for 10 minutes when the luminescence signals were stable. SpectraMax i3x microplate reader was used to read signals.
The original data was converted into inhibition rate, and the IC50 value (half inhibition concentration) of the compound was determined by fitting the nonlinear four-parameter curve.

Molecule `CCc1nc2c(N)ncc(-c3ccc(N4CCC(N5CCN(C)CC5)CC4)c(OC)c3)c2nc1N[C@H]1CC[C@H](O)C1` [Compound 69] has a pIC50 [1] of no less than 8.00 and a pIC50 [2] of 6.30 to 7.00.

Molecule `CCc1nc2c(N)ncc(-c3ccc(N4CCC(N5CCN(C)CC5)CC4)c(OC)c3)c2nc1N[C@@H]1CC[C@@H](O)C1` [Compound 70] has a pIC50 [1] of no less than 8.00 and a pIC50 [2] of no less than 8.00.

For `CCc1nc2c(N)ncc(-c3ccc(N4CCC(N5CCN(C)CC5)CC4)c(OC)c3)c2nc1N[C@H]1CC[C@@H](O)C1` [Compound 71], the pIC50 [1] was no less than 8.00 and the pIC50 [2] was 7.00 to 8.00.

`CCc1nc2c(N)ncc(-c3ccc(N4CCC(N5CCN(C)CC5)CC4)c(OC)c3)c2nc1N[C@@H]1CC[C@H](O)C1` [Compound 72] showed a pIC50 [1] of no less than 8.00 and a pIC50 [2] of no less than 8.00.

For `CCc1nc2c(N)ncc(-c3ccc(N4CCC(N5CCN(C)CC5)CC4)c(OC)c3)c2nc1NC(C)C` [Compound 77], the pIC50 [1] was no less than 8.00 and the pIC50 [2] was 7.00 to 8.00.

With `CCc1nc2c(N)ncc(-c3ccc(N4CCC(N5CCN(C)CC5)CC4)c(OC)c3)c2nc1NC1CCCC1O` (stereo not shown) [Compound 78] the pIC50 [1] was no less than 8.00 and the pIC50 [2] was 7.00 to 8.00.

`CCc1nc2c(N)ncc(-c3ccc(N4CCC(N5CCN(C)CC5)CC4)c(OC)c3)c2nc1NC1CCOC1` (stereo not shown) [Compound 79] showed a pIC50 [1] of no less than 8.00 and a pIC50 [2] of 7.00 to 8.00.

`CCc1nc2c(N)ncc(-c3ccc(N4CCC(N5CCN(C)CC5)CC4)c(OC)c3)c2nc1NC1CCCOC1` (stereo not shown) [Compound 83] showed a pIC50 [1] of no less than 8.00 and a pIC50 [2] of 7.00 to 8.00.

`CCc1nc2c(N)ncc(-c3ccc(N4CCC(N5CCN(C)CC5)CC4)c(OC)c3)c2nc1NCC1CCOCC1` [Compound 85] was tested, and the pIC50 [1] was no less than 8.00 and the pIC50 [2] was 7.00 to 8.00.

In the case of `CCc1nc2c(N)ncc(-c3ccc(N4CCC(N5CCN(C)CC5)CC4)c(OC)c3)c2nc1NC1CCCC1` [Compound 92], the pIC50 [1] was no less than 8.00 and the pIC50 [2] was 7.00 to 8.00.

`[2H]C([2H])([2H])N1CCN(C2CCN(c3ccc(-c4cnc(N)c5nc(CC)c(NC6CCOCC6)nc45)cc3OC)CC2)CC1` [Compound 121] showed a pIC50 [1] of no less than 8.00 and a pIC50 [2] of 7.00 to 8.00.

`CCc1nc2c(N)ncc(-c3cnn(C4CCN(C5CCN(C)CC5)CC4)c3)c2nc1NC1CCC(O)C1` (stereo not shown) [Compound 134, 3-((5-amino-3-ethyl-8-(1-(1′-methyl-[1,4′-bipiperidine]-4-yl)-1H-pyrazol-4-yl)pyridino[3,4-b]pyrazine-2-yl)amino)cyclopentan-1-ol] gave a pIC50 [1] of no less than 8.00 and a pIC50 [2] of 7.00 to 8.00.

`CCc1nc2c(N)ncc(-c3cnn(C4CCN(C5CCN(C)CC5)CC4)c3)c2nc1NC1CCOCC1` [Compound 135] gave a pIC50 [1] of no less than 8.00 and a pIC50 [2] of 7.00 to 8.00.

`CCc1nc2c(N)ncc(-c3cnn(C4CCN(C)CC4)c3)c2nc1NC1CCOCC1` [Compound 136] was tested, and the pIC50 [1] was no less than 8.00 and the pIC50 [2] was 7.00 to 8.00.

`CCc1nc2c(N)ncc(-c3ccn(C)n3)c2nc1NC1CCOCC1` [Compound 138] gave a pIC50 [1] of 6.30 to 7.00 and a pIC50 [2] of less than 6.30.

`CCc1nc2c(N)ncc(-c3ccc(N4CCC(N5CCN(C)CC5)CC4)c(OC(F)F)c3)c2nc1NC1CCOCC1` [Compound 139] showed a pIC50 [1] of no less than 8.00 and a pIC50 [2] of 7.00 to 8.00.

`CCc1nc2c(N)ncc(-c3cnn(CC4CCN(C5CCN(C)CC5)CC4)c3)c2nc1NC1CCOCC1` [Compound 155] showed a pIC50 [1] of no less than 8.00 and a pIC50 [2] of 7.00 to 8.00.

In the case of `CCc1nc2c(N)ncc(-c3cnn(C4CCN(CCO)CC4)c3)c2nc1NC1CCOCC1` [Compound 156], the pIC50 [1] was no less than 8.00 and the pIC50 [2] was 7.00 to 8.00.

`CCc1nc2c(N)ncc(-c3cnn(C4CCN(CC5CCNCC5)CC4)c3)c2nc1NC1CCOCC1` [Compound 157] showed a pIC50 [1] of no less than 8.00 and a pIC50 [2] of 7.00 to 8.00.

Molecule `CCc1nc2c(N)ncc(-c3cnn(C4CCN(CC5CCN(C)CC5)CC4)c3)c2nc1NC1CCOCC1` [Compound 158] has a pIC50 [1] of no less than 8.00 and a pIC50 [2] of 7.00 to 8.00.

`CCc1nc2c(N)ncc(-c3cnn(C4CCN(C5CCNCC5)CC4)c3)c2nc1NC1CCOCC1` [Compound 160] showed a pIC50 [1] of no less than 8.00 and a pIC50 [2] of 7.00 to 8.00.

`CCc1nc2c(N)ncc(-c3cnn(C4C[C@H]5CC[C@@H](C4)N5C(C)C)c3)c2nc1N[C@@H]1CC[C@H](O)C1` (stereo partly shown) [Compound 166] was tested, and the pIC50 [1] was no less than 8.00 and the pIC50 [2] was no less than 8.00.

`CCc1nc2c(N)ncc(-c3cnn(C4C[C@H]5CC[C@@H](C4)N5CC(C)C)c3)c2nc1N[C@@H]1CC[C@H](O)C1` (stereo partly shown) [Compound 167] gave a pIC50 [1] of no less than 8.00 and a pIC50 [2] of no less than 8.00.

`CCc1nc2c(N)ncc(-c3cnn(C4C[C@H]5CC[C@@H](C4)N5S(C)(=O)=O)c3)c2nc1N[C@@H]1CC[C@H](O)C1` (stereo partly shown) [Compound 168] was tested, and the pIC50 [1] was no less than 8.00 and the pIC50 [2] was no less than 8.00.

Molecule `CCc1nc2c(N)ncc(-c3cnn(C4CC(C)(C)N(C)C(C)(C)C4)c3)c2nc1N[C@@H]1CC[C@H](O)C1` [Compound 169, (1S,3R)-3-((5-amino-3-ethyl-8-(1-(1,2,2,6,6-pentamethylpiperidine-4-yl)-1H-pyrazol-4-yl)pyridino[3,4-b]pyrazine-2-yl)amino)cyclopentan-1-ol] has a pIC50 [1] of no less than 8.00 and a pIC50 [2] of no less than 8.00.

In the case of `CCc1nc2c(N)ncc(-c3cnn(C4CCN(c5cccnc5)CC4)c3)c2nc1N[C@@H]1CC[C@H](O)C1` [Compound 170], the pIC50 [1] was no less than 8.00 and the pIC50 [2] was no less than 8.00.

`CCc1nc2c(N)ncc(-c3cnn(C4CCN(c5ccnc(C)c5)CC4)c3)c2nc1N[C@@H]1CC[C@H](O)C1` [Compound 171] showed a pIC50 [1] of no less than 8.00 and a pIC50 [2] of no less than 8.00.

In the case of `CCc1nc2c(N)ncc(-c3cnn(C4CCN(c5ccncn5)CC4)c3)c2nc1N[C@@H]1CC[C@H](O)C1` [Compound 172], the pIC50 [1] was no less than 8.00 and the pIC50 [2] was no less than 8.00.

`CCc1nc2c(N)ncc(-c3cnn(C4CCN(c5ccnc(C)n5)CC4)c3)c2nc1N[C@@H]1CC[C@H](O)C1` [Compound 174] gave a pIC50 [1] of no less than 8.00 and a pIC50 [2] of no less than 8.00.

Molecule `CCc1nc2c(N)ncc(-c3cnn(C4CCN(c5cccnn5)CC4)c3)c2nc1N[C@@H]1CC[C@H](O)C1` [Compound 175] has a pIC50 [1] of no less than 8.00 and a pIC50 [2] of no less than 8.00.

`CCc1nc2c(N)ncc(-c3cnn(-c4ccccc4)c3)c2nc1N[C@@H]1CC[C@H](O)C1` [Compound 176] gave a pIC50 [1] of no less than 8.00 and a pIC50 [2] of 7.00 to 8.00.

Work on `CCc1nc2c(N)ncc(-c3cnn(-c4ccc(C)nc4)c3)c2nc1N[C@@H]1CC[C@H](O)C1` [Compound 177, (1S,3R)-3-((5-amino-3-ethyl-8-(1-(6-methylpyridin-3-yl)-1H-pyrazol-4-yl)pyridino[3,4-b]pyrazin-2-yl)amino)cyclopentan-1-ol] yielded a pIC50 [1] of no less than 8.00 and a pIC50 [2] of no less than 8.00.
